# Values joined by “and” are separate entries in the source; they are usually repeats but may differ in a detail not shown here. Equal entries are not always repeated. Records with an inconclusive call do not appear.
# Test system: BDF1 mice, colon carcinoma 38 sc, T/C %
# Test: NCI In Vivo Anticancer Drug Screen. Data for tumor model Colon Carcinoma 38 (subcutaneous) in B6D2F1 (BDF1) mice
# Conditions: endpoint: median tumor weight (est.), higher = larger tumour
# Method in brief: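 Transplantable tumor in mice; compound-treated vs vehicle-dosed controls. Measured survival or tumor size; value = T ÷ C.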
# [1] = dose: 12.5 mg/kg/injection, schedule: Q07DX002 (ip), vehicle: saline with Tween-80
# [2] = dose: 200.0 mg/kg/injection, schedule: Q07DX002 (ip), vehicle: saline with Tween-80
# [3] = dose: 25.0 mg/kg/injection, schedule: Q07DX002 (ip), vehicle: saline with Tween-80
# [4] = dose: 50.0 mg/kg/injection, schedule: Q07DX002 (ip), vehicle: saline
# [5] = dose: 100.0 mg/kg/injection, schedule: Q07DX002 (ip), vehicle: saline
compound,measurement,setting,value
C=C(Cl)C(=NC(C)(C)C)Nc1ccccc1C,T/C,"dose: 6.25 mg/kg/injection, schedule: Q07DX002 (ip), vehicle: Klucel (hydroxypropylcellulose) (HPC)",68 % of control
same,T/C,"dose: 12.5 mg/kg/injection, schedule: Q07DX002 (ip), vehicle: Klucel (hydroxypropylcellulose) (HPC)",96 % of control
same,T/C,"dose: 25.0 mg/kg/injection, schedule: Q07DX002 (ip), vehicle: Klucel (hydroxypropylcellulose) (HPC)",76 % of control
same,T/C,"dose: 50.0 mg/kg/injection, schedule: Q07DX002 (ip), vehicle: Klucel (hydroxypropylcellulose) (HPC)",84 % of control
same,T/C,"dose: 100.0 mg/kg/injection, schedule: Q07DX002 (ip), vehicle: Klucel (hydroxypropylcellulose) (HPC)",113 % of control
CC(=Nc1ccccc1)C1=C(O)C(Cc2ccccc2)NC1=O (stereo not drawn),T/C,[1],86 % of control and 105 % of control
same,T/C,"dose: 100.0 mg/kg/injection, schedule: Q07DX002 (ip), vehicle: saline with Tween-80",45 % of control and 50 % of control
same,T/C,[2],70 % of control and 82 % of control
CC(=O)Nc1ccc(C(=O)C=O)cc1,T/C,[1],62 % of control and 78 % of control
same,T/C,[3],87 % of control and 100 % of control
same,T/C,[2],92 % of control
C=CC(C)NC(=S)NNC(=S)NC (stereo not drawn),T/C,"dose: 50.0 mg/kg/injection, schedule: Q07DX002 (ip), vehicle: saline + alcohol",97 % of control
same,T/C,"dose: 100.0 mg/kg/injection, schedule: Q07DX002 (ip), vehicle: saline + alcohol",112 % of control
same,T/C,"dose: 200.0 mg/kg/injection, schedule: Q07DX002 (ip), vehicle: saline + alcohol",104 % of control
same,T/C,"dose: 400.0 mg/kg/injection, schedule: Q07DX002 (ip), vehicle: saline + alcohol",86 % of control
Cc1ccccc1SSc1ccccc1C,T/C,"dose: 25.0 mg/kg/injection, schedule: Q07DX003 (ip), vehicle: other",92 % of control
same,T/C,"dose: 25.0 mg/kg/injection, schedule: Q07DX003 (ip), vehicle: saline with Tween-80",96 % of control
same,T/C,"dose: 50.0 mg/kg/injection, schedule: Q07DX003 (ip), vehicle: other",123 % of control
same,T/C,"dose: 50.0 mg/kg/injection, schedule: Q07DX003 (ip), vehicle: saline with Tween-80",88 % of control
same,T/C,"dose: 100.0 mg/kg/injection, schedule: Q07DX003 (ip), vehicle: other",89 % of control
same,T/C,"dose: 100.0 mg/kg/injection, schedule: Q07DX003 (ip), vehicle: saline with Tween-80",62 % of control
same,T/C,"dose: 200.0 mg/kg/injection, schedule: Q07DX003 (ip), vehicle: other",84 % of control
same,T/C,"dose: 200.0 mg/kg/injection, schedule: Q07DX003 (ip), vehicle: saline with Tween-80",74 % of control
Nc1nc(=S)c2[nH]cnc2[nH]1,T/C,"dose: 1.56 mg/kg/injection, schedule: Q07DX002 (ip), vehicle: alkali diluted with saline",105 % of control
same,T/C,"dose: 2.0 mg/kg/injection, schedule: Q07DX002 (ip), vehicle: alkali diluted with saline",63 % of control
same,T/C,"dose: 2.0 mg/kg/injection, schedule: Q07DX003 (ip), vehicle: alkali diluted with saline",37 % of control and 46 % of control (2×)
same,T/C,"dose: 2.0 mg/kg/injection, schedule: Q07DX003 (ip), vehicle: saline",52 % of control and 61 % of control
same,T/C,"dose: 3.13 mg/kg/injection, schedule: Q07DX002 (ip), vehicle: alkali diluted with saline",32 % of control
same,T/C,"dose: 4.0 mg/kg/injection, schedule: Q07DX002 (ip), vehicle: alkali diluted with saline",44 % of control
same,T/C,"dose: 4.0 mg/kg/injection, schedule: Q07DX002 (ip), vehicle: saline",54 % of control and 78 % of control
same,T/C,"dose: 4.0 mg/kg/injection, schedule: Q07DX003 (ip), vehicle: saline",27 % of control and 42 % of control
same,T/C,"dose: 6.25 mg/kg/injection, schedule: Q07DX002 (ip), vehicle: alkali diluted with saline",29 % of control
same,T/C,"dose: 8.0 mg/kg/injection, schedule: Q07DX002 (ip), vehicle: alkali diluted with saline",21 % of control
same,T/C,"dose: 8.0 mg/kg/injection, schedule: Q07DX002 (ip), vehicle: saline",26 % of control and 31 % of control
same,T/C,"dose: 8.0 mg/kg/injection, schedule: Q07DX003 (ip), vehicle: alkali diluted with saline",8 % of control and 11 % of control and 18 % of control
same,T/C,"dose: 8.0 mg/kg/injection, schedule: Q07DX003 (ip), vehicle: saline",13 % of control and 37 % of control
same,T/C,"dose: 12.5 mg/kg/injection, schedule: Q07DX002 (ip), vehicle: alkali diluted with saline",9 % of control
same,T/C,"dose: 16.0 mg/kg/injection, schedule: Q07DX002 (ip), vehicle: alkali diluted with saline",20 % of control
same,T/C,"dose: 16.0 mg/kg/injection, schedule: Q07DX002 (ip), vehicle: saline",17 % of control and 24 % of control
same,T/C,"dose: 16.0 mg/kg/injection, schedule: Q07DX003 (ip), vehicle: alkali diluted with saline",2 % of control and 8 % of control
same,T/C,"dose: 16.0 mg/kg/injection, schedule: Q07DX003 (ip), vehicle: saline",4 % of control and 15 % of control
same,T/C,"dose: 25.0 mg/kg/injection, schedule: Q07DX002 (ip), vehicle: alkali diluted with saline",18 % of control
same,T/C,"dose: 32.0 mg/kg/injection, schedule: Q07DX002 (ip), vehicle: alkali diluted with saline",14 % of control
same,T/C,"dose: 32.0 mg/kg/injection, schedule: Q07DX003 (ip), vehicle: alkali diluted with saline",2 % of control
same,T/C,"dose: 32.0 mg/kg/injection, schedule: Q07DX003 (ip), vehicle: saline",9 % of control
same,T/C,"dose: 50.0 mg/kg/injection, schedule: Q07DX002 (ip), vehicle: alkali diluted with saline",16 % of control
BrC1CC(Br)c2c1c1c(c3c2C(Br)CC3Br)C(Br)CC1Br (stereo not drawn),T/C,[1],157 % of control
same,T/C,[3],94 % of control and 103 % of control
same,T/C,[2],80 % of control and 86 % of control
same,T/C,"dose: 400.0 mg/kg/injection, schedule: Q07DX002 (ip), vehicle: saline with Tween-80",81 % of control and 105 % of control
CCN=C=NCCCN(C)C,T/C,"dose: 12.5 mg/kg/injection, schedule: Q07DX002 (ip), vehicle: saline",118 % of control
same,T/C,"dose: 25.0 mg/kg/injection, schedule: Q07DX002 (ip), vehicle: saline",103 % of control
same,T/C,[4],120 % of control
same,T/C,[5],100 % of control
CCC(=O)O[C@H]1CC[C@H]2[C@@H]3CCC4=CC(=O)CC[C@]4(C)[C@H]3CC[C@]12C,T/C,"dose: 20.0 mg/kg/injection, schedule: Q07DX002 (ip), vehicle: Klucel (hydroxypropylcellulose) (HPC)",72 % of control
same,T/C,"dose: 40.0 mg/kg/injection, schedule: Q07DX002 (ip), vehicle: Klucel (hydroxypropylcellulose) (HPC)",71 % of control and 81 % of control
same,T/C,"dose: 40.0 mg/kg/injection, schedule: Q07DX002 (ip), vehicle: suspension in saline",60 % of control
same,T/C,"dose: 80.0 mg/kg/injection, schedule: Q07DX002 (ip), vehicle: suspension in saline",93 % of control
same,T/C,"dose: 160.0 mg/kg/injection, schedule: Q07DX002 (ip), vehicle: suspension in saline",86 % of control
same,T/C,"dose: 320.0 mg/kg/injection, schedule: Q07DX002 (ip), vehicle: suspension in saline",99 % of control
same,T/C,"dose: 640.0 mg/kg/injection, schedule: Q07DX002 (ip), vehicle: Klucel (hydroxypropylcellulose) (HPC)",89 % of control and 100 % of control and 101 % of control
same,T/C,"dose: 640.0 mg/kg/injection, schedule: Q07DX002 (ip), vehicle: suspension in saline",86 % of control
CCCCCCCCSC1=C(Cl)C(=O)C(OC)=C(OC)C1=O,T/C,"dose: 1.56 mg/kg/injection, schedule: Q07DX002 (ip), vehicle: saline with Tween-80",94 % of control and 95 % of control
ClCCCN1CCCCC1CCl (stereo not drawn),T/C,"dose: 0.78 mg/kg/injection, schedule: Q07DX002 (ip), vehicle: saline",80 % of control and 86 % of control
CNc1nc(NC)nc(NC)n1,T/C,"dose: 12.5 mg/kg/injection, schedule: Q07DX003 (ip), vehicle: Klucel (hydroxypropylcellulose) (HPC)",105 % of control
same,T/C,"dose: 50.0 mg/kg/injection, schedule: Q07DX003 (ip), vehicle: Klucel (hydroxypropylcellulose) (HPC)",111 % of control
same,T/C,"dose: 100.0 mg/kg/injection, schedule: Q07DX003 (ip), vehicle: Klucel (hydroxypropylcellulose) (HPC)",109 % of control
same,T/C,"dose: 200.0 mg/kg/injection, schedule: Q07DX003 (ip), vehicle: Klucel (hydroxypropylcellulose) (HPC)",86 % of control
NC(=S)c1ncn(C2OC(CO)C(O)C2O)c1N (stereo not drawn),T/C,"dose: 12.5 mg/kg/injection, schedule: Q07DX002 (ip), vehicle: suspension in saline",114 % of control
same,T/C,"dose: 25.0 mg/kg/injection, schedule: Q07DX002 (ip), vehicle: suspension in saline",80 % of control
same,T/C,[4],106 % of control
same,T/C,"dose: 50.0 mg/kg/injection, schedule: Q07DX002 (ip), vehicle: suspension in saline",87 % of control
same,T/C,[5],118 % of control
same,T/C,"dose: 100.0 mg/kg/injection, schedule: Q07DX002 (ip), vehicle: suspension in saline",67 % of control
same,T/C,"dose: 200.0 mg/kg/injection, schedule: Q07DX002 (ip), vehicle: saline",259 % of control
same,T/C,"dose: 200.0 mg/kg/injection, schedule: Q07DX002 (ip), vehicle: suspension in saline",56 % of control
same,T/C,"dose: 400.0 mg/kg/injection, schedule: Q07DX002 (ip), vehicle: saline",226 % of control
same,T/C,"dose: 400.0 mg/kg/injection, schedule: Q07DX002 (ip), vehicle: suspension in saline",67 % of control

# Reference: PubChem BioAssay AID212 (DTP/NCI, 2004)
